Consider six compounds from US6124342A, “Pharmaceutical compositions containing pyrylium compounds, pyrylium salts and process for manufacturing a medicament containing the aforesaid compounds” (priority 1993, dated 2000).

Molecules are shown by their SMILES. “And” between values parts separate entries of the source, which are not always exact repeats. Identical values can stand only once. Like-named read-outs stand apart in the source and are kept apart here.

A short description of data set [1]: Light absorption characteristics without DNA (Table 2). It is filed as physicochemical. The source says:
(§1) Typical examples of compounds represented by the formula [I] which can be used as the active ingredient in a medicament for the photochemical treatment of cancer according to the present invention are shown in Table 1 below. Almost all the compound shown in Table 2 have their own absorption peaks in the region 600 nm or above, and have molar absorption coefficients as large as 5-8.5×10^4 l/mol.cm which enables more efficient use to be made of the light in photochemical treatment. Furthermore, compound 1 in Table 2 has an absorption peak in the region below 600 nm, but it has sufficiently strong absorption that it still provides better treatment efficiency at wavelength greater than 600 nm.

Another data set relates to DNA. As to the kind of experiment: Light absorption characteristics under existence of DNA (Table 2). It is filed as physicochemical. The following applies: with DNA.
Excerpt: as §1

A further data set deals with cancer cells. In words: Uptake by cancer cells. Type of data set: cell-based, mice. How it is done:
Four such cultures using the same medium were prepared.

For a further data set, the system named is nude mice. In words: Acute toxicity test, intravenous injection. Type of data set: in vivo. The note with it: balanced saline solution; i.v. leg vein; 1 mg/kg; 2 nude mice. How it is done:
The compound 1 (Y=I) was dissolved into a balanced saline solution and was injected into each of 2 nude mice of weight 200-400 g through a vein in the leg of the mouse. The amount of solution injected was 1 mg to 1 kg of the weight of each mouse.
The toxicity test of Example 6 was repeated except that the compound 2 was used in place of the compound 1.
The test of Example 6 was repeated except that the compound 1 (Y=I) was dissolved in dimethyl sulfoxide. The amount of solution injected was 1 mg per 1 kg of the mouse's weight. Subsequent injections on further groups of mice were carried out at 5 mg per 1 kg of the mouse's weight and 25 mg per 1 kg of the mouse's weight.
The same test as in Example 8 was carried out except that the active ingredient was compound 2 (Y=I) instead of compound 1.

In data set [2] the test system is KATO III. As to the kind of experiment: Photochemical treatment of KATO III tumours in nude mice. Type of data set: in vivo, human. The note with it: Tables 6 and 7. How it is done:
(§2) Ten nude mice having weight 200-400 g were selected, and they were separated into five groups referred to as A, B, C, D and E, each containing two nude mice. Each of the mice was inocculated on its back with KATO III, which is a culture of stomach cancer cells from a human patient. The cancer cells were inocculated into the central part of the back of each mouse, after which the mice were kept for ten days. […] The mice in groups A, B and E were injected with the compound 1 (Y=I) in balanced saline solution through a vein in the leg. The amount of compound 1 which was administered to each mouse was 1 mg per 1 kg of the mouse's weight. Thereafter, the cancerous growth in each mouse in the group A and C was irradiated with white light in which the radiation of wavelength 400 nm or less and radiation of wavelength 1000 nm or above was filtered out. In group E, a part of every mouse's back was irradiated with the white light. In each case the amount of irradiation was 50J. Thereafter, the cancerous region of each mouse in the group a to D was observed and the skin of each mouse in the group E was observed.
The same test as in Example 10 was carried out except that the compound 2 was used in place of the compound 1. the results are shown in Table 7.

The subject of the next data set is skin of each mouse. In words: Irradiation of the back skin of medicated mice without tumour. Type of data set: in vivo, nude mice. The note with it: for change on irradiation of mice without tumour: group E or E'; for affinity for cancer cells versus normal cells: inferred from group E or E'. How it is done:
as §2, with “The amount of compound 1 which was administered to each mouse was 1 mg per 1 kg of the mouse's weight. Thereafter, the cancerous growth in each mouse in the group A and C was irradiated with white light in which the radiation of wavelength 400 nm or less and radiation of wavelength 1000 nm or above was filtered out.” left out

The subject of data set [3] is KATO III. As to the kind of experiment: Deepness of necrotic tumour after irradiation. Type of data set: in vivo, human. The note with it: 1 mg/kg; 580 nm (half-width=20 nm); 10J; one day after irradiation. As to the method:
Four nude mice of weight 200-400 g were selected and were separated into groups X and Y, each containing two mice. Next, KATO III was inocculated into every mouse in the same way as in Example 10, after which the mice were kept for three weeks to fix the cancer cells. After three weeks the cancer in each mouse had grown and the size of the cancer was about 13 mm wide, 13 mm long and about 8 mm high. Next the mice in group X were injected via the leg with a balanced saline solution of the compound 1, and the mice of Group Y were injected with a balanced saline solution of the compound 16 via the leg. The dose of the compound 1 or 16 was adjusted to be 1 mg of the compound 1 or the compound 16 per 1 kg of the mouse's weight. Subsequently, the mice in group X were irradiated with radiation of wavelength 580 nm (half-width=20 nm) which was separated by means of a filter, and the mice in group Y were irradiated with radiation having a wavelength 720 nm (half-width=20 nm) which was separated with a filter. The amount of energy irradiated was 10J. One day after the irradiation the depth of the tumour which had become necrotic was measured.

A further data set deals with L-929 cells. As to the kind of experiment: Photochemical killing of cultured cancer cells (fluorescence microscope irradiation). The following applies: for cytotoxicity at 0.25 µg/mL: read-out: percentage of cells which had died, 0.25 μg/ml; for cytotoxicity at 0.5 µg/mL: read-out: percentage of cells which had died, 0.5 μg/ml; for cell killing without irradiation: compound added, not irradiated; for cytotoxicity at 0.05 µg/mL: read-out: percentage of cells which died, 0.05 μg/ml; for cytotoxicity at 0.075 µg/mL: read-out: percentage of cells which died, 0.075 μg/ml.

The mark [4] stands for this setting: Mus musculus, L929, 12 h, 3 min, 560-610 nm, Y=I.
[5] abbreviates: Mus musculus, L929, 12 h, 5 min, 560-610 nm, Y=I.
[6] abbreviates: Mus musculus, L929, 1 min, 1 min, 600-650 nm, Y=I.
The mark [7] stands for this setting: Mus musculus, L929, 0.05 h, 3 min, 600-650 nm, Y=I.
The mark [8] stands for this setting: Mus musculus, L929, 5 min, 5 min, 600-650 nm, Y=I.

Protocol for L-929 cells: L-929 cells which are typical cultured cancer cells from mice were planted onto a culture medium containing E-MEM +10% FCS. The density of the cells in the medium was 10^6 cells/dish (20 ml). Thereafter, the cells were maintained at 37° C. and cultured for 36 hours. Four such cultures using the same medium were prepared. […] Then radiation of wavelength from 560-610 nm to which the compound 1 is responsive was supplied using a fluorescence microscope for the interval of time indicated in Table 3. Thereafter, each medium was cultured for 12 hours, after which the cells were observed using a microscope.
The light used to irradiate the cells at a wavelength of 600-650 nm.
The cells were irradiated with light of wavelength 700-750 nm.

Consider `CN(C)c1ccc(C=CC=Cc2cc(-c3ccccc3)[o+]c(-c3ccccc3)c2)cc1` [Compound 9], for which, in data set [1], the “Absorption (max) Peak Under no existence of DNA” value was 660 nm. Further, the “Absorption (max) Peak Under existence of DNA” value in the data set with DNA amounted to 720 nm.

On to `CCN(CC)c1ccc(C=Cc2ccc(C=Cc3cc(-c4ccccc4)cc(-c4ccccc4)[o+]3)cc2)cc1` [Compound 17], for which the “Absorption (max) Peak Under no existence of DNA” value in data set [1] turned out to be 690 nm. For the same compound, the “Absorption (max) Peak Under existence of DNA” value in the data set on DNA is 720 nm.

As to `CN(C)c1ccc(C=Cc2cc(-c3ccccc3)cc(-c3ccccc3)[s+]2)cc1` [Compound 8], the “Absorption (max) Peak Under no existence of DNA” value in data set [1] worked out at 650 nm. For the same compound, in the data set with DNA, the “Absorption (max) Peak Under existence of DNA” value was determined as 610 nm.

For `Cc1cc(-c2ccc(N(C)C)cc2)cc(-c2ccc(N(C)C)cc2)[o+]1` [Compound 1, 2-methyl-4,6-bis-(4-N,N-dimethylaminophenyl) pyrylium iodide], in data set [1], the “Molar absorption coefficient ε” value was 84600 L/mol/cm and the “Absorption (max) Peak Under no existence of DNA” value worked out at 540 nm. The absorption peak region entry in data set [1] (Table 2) is recorded as “below 600 nm”. For the same compound, the “Absorption (max) Peak Under existence of DNA” value in the data set on DNA came out at 580 nm. The “uptake by the cancer cells” value in the data set on cancer cells is listed as “rapid”. Further, the “adverse effects (acute toxicity)” value with nude mice is on record as “no adverse effects”. Besides, in the data set on KATO III [2], the “effectiveness in photochemical treatment of human cancer cells growing in live mice” value was “effective in the photochemical treatment of human cancer cells growing in live mice”. Also, the Change of skin entry in the data set with skin of each mouse (Table 6, group E: 1 mg/kg i.v., irradiated 50J) is given as “No Change”. In addition, in the data set on skin of each mouse, the “change on irradiation of mice without tumour” value was “no change was observed” and the “affinity for cancer cells versus normal cells” value is recorded as “different from the affinity”. Besides, in the data set on KATO III [3], the “Deepness of died tumour” value was 4.5 mm and 4.8 mm. Besides, the “effectiveness to kill cancer cells” value with L-929 cells (0.1-0.5 μg/ml, irradiation 1-5 minutes) was “effective to kill cancer cells”. In addition, the cytotoxicity at 0.1 µg/mL in the data set on L-929 cells (Mus musculus, L929, 12 h, read-out: percentage of cells which had died, 0.1 μg/ml, 5 min, 560-610 nm, Y=I) was 100%. Further, in the data set on L-929 cells (setting [4]), the cytotoxicity at 0.25 µg/mL was roughly 100% and the cytotoxicity at 0.5 µg/mL is roughly 100%. In the data set with L-929 cells (setting [5]), the cytotoxicity at 0.25 µg/mL turned out to be 100% and the cytotoxicity at 0.5 µg/mL came to 100%. Besides, in the data set on L-929 cells (Mus musculus, L929, 12 h, 1 min, 560-610 nm, Y=I), the cytotoxicity at 0.5 µg/mL is roughly 90%. Moreover, the “cell killing without irradiation” value in the data set with L-929 cells is “not killed and continued to grow in culture”.

As to `CN(C)c1ccc(C=CC(C=Cc2ccc(N(C)C)cc2)=Cc2cc(-c3ccccc3)[o+]c(-c3ccccc3)c2)cc1` [Compound 11], in data set [1], the “Absorption (max) Peak Under no existence of DNA” value worked out at 625 nm. The “Absorption (max) Peak Under existence of DNA” value in the data set with DNA was determined as 660 nm.

Turning to `Cc1cc(-c2ccc(N(C)C)cc2)cc(-c2ccc(N(C)C)cc2)[s+]1` [Compound 2, 2-methyl-4,6-bis-(4-N,N-dimethylaminophenyl)thiopyrylium iodide], the “Molar absorption coefficient ε” value in data set [1] was found to be 49500 L/mol/cm. Further, the “Absorption (max) Peak Under no existence of DNA” value in data set [1] was determined as 580 nm. In addition, the “Absorption (max) Peak Under existence of DNA” value with DNA is 620 nm. Moreover, the “adverse effects (acute toxicity)” value in the data set with nude mice is “no ill effects”. For the same compound, in the data set on KATO III [2], the “effectiveness in photochemical treatment of human cancer cells growing in live mice” value is “effective in the photochemical treatment of human cancer cells growing in live mice”. In the data set on skin of each mouse (Table 7, group E': medicated, irradiated), the Change of skin entry is on record as “No Change”. In the data set with skin of each mouse, the “change on irradiation of mice without tumour” value was “no change was observed”. In addition, the “affinity for cancer cells versus normal cells” value with skin of each mouse was “different from the affinity”. Also, the cytotoxicity at 0.05 µg/mL in the data set on L-929 cells (setting [6]) was roughly 10%; in the data set on L-929 cells (setting [7]) it was 80%; with L-929 cells (setting [8]) it was 100%. The cytotoxicity at 0.075 µg/mL in the data set on L-929 cells (setting [6]) worked out at 80%; with L-929 cells (setting [7]) it was 100%; in the data set with L-929 cells (setting [8]), 100%. In addition, the cytotoxicity at 0.1 µg/mL in the data set with L-929 cells (Mus musculus, L929, 1 min, read-out: percentage of cells which died, 0.1 μg/ml, 1 min, 600-650 nm, Y=I) was found to be 100%; with L-929 cells (Mus musculus, L929, 0.05 h, read-out: percentage of cells which died, 0.1 μg/ml, 3 min, 600-650 nm, Y=I), 100%; in the data set with L-929 cells (Mus musculus, L929, 5 min, read-out: percentage of cells which died, 0.1 μg/ml, 5 min, 600-650 nm, Y=I), 100%. In the data set on L-929 cells (Mus musculus, L929, 5 min, read-out: percentage of cells which died, 0.025 μg/ml, 5 min, 600-650 nm, Y=I), the cytotoxicity at 0.025 µg/mL is roughly 50%. Moreover, the “cell killing without irradiation” value in the data set with L-929 cells was “not killed and continued to grow in culture”. Besides, in the data set on L-929 cells (with irradiation), the “killing effect compared with another compound” value is listed as “greater killing effect than compound 1”.
